In ChEMBL document CHEMBL1137777, “Design, synthesis, and evaluation of indolinones as triple angiokinase inhibitors and the discovery of a highly specific 6-methoxycarbonyl-substituted indolinone (BIBF 1120)” (J Med Chem, 2009):

Columns and labels:
[1] = molecular target: Vascular endothelial growth factor receptor 2 (Homo sapiens, UniProt P35968); assay: Inhibition of human VEGFR2 expressed in Sf9 cells
HUVEC = assay: cells; conditions: Homo sapiens, 3 h
Description: Antiangiogenic activity in HUVEC assessed as inhibition of VEGF-induced cell proliferation by [3H]thymidine incorporation assay

HeLa = assay: Antiangiogenic activity against human HeLa cells assessed as inhibition of cell proliferation by [3H]thymidine incorporation assay; type: functional, cell-based
[2] = molecular target: Insulin-like growth factor 1 receptor (Homo sapiens, UniProt P08069); assay: Inhibition of human IGFR1
Insulin receptor = Insulin receptor (Homo sapiens, UniProt P06213); assay: Inhibition of human InsR
[3] = molecular target: Cyclin-dependent kinase 1 (Homo sapiens, UniProt P06493); assay: Inhibition of human CDK1
Chain of Cyclin-dependent kinase 1 (P06493 whole entry): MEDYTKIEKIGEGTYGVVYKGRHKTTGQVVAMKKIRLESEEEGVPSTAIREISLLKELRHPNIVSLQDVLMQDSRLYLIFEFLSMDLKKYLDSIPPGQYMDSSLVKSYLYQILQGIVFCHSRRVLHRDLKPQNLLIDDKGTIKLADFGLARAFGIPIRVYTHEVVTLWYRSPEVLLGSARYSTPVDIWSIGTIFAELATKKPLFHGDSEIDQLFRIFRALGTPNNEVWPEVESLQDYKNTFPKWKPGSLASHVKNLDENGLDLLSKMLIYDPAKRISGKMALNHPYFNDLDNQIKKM

[4] = molecular target: Cyclin-dependent kinase 4 (Homo sapiens, UniProt P11802); assay: Inhibition of human CDK4
Chain of Cyclin-dependent kinase 4 (P11802 whole entry): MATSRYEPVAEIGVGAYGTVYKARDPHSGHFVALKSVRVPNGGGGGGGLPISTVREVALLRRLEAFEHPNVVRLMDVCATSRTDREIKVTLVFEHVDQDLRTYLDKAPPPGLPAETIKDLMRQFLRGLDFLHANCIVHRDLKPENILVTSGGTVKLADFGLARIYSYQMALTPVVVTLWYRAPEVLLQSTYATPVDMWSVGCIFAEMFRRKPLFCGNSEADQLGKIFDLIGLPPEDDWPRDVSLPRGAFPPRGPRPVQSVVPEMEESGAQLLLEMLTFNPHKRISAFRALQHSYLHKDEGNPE

[5] = molecular target: Epidermal growth factor receptor (Homo sapiens, UniProt P00533); assay: Inhibition of human EGFR
Chain of Epidermal growth factor receptor (P00533 whole entry): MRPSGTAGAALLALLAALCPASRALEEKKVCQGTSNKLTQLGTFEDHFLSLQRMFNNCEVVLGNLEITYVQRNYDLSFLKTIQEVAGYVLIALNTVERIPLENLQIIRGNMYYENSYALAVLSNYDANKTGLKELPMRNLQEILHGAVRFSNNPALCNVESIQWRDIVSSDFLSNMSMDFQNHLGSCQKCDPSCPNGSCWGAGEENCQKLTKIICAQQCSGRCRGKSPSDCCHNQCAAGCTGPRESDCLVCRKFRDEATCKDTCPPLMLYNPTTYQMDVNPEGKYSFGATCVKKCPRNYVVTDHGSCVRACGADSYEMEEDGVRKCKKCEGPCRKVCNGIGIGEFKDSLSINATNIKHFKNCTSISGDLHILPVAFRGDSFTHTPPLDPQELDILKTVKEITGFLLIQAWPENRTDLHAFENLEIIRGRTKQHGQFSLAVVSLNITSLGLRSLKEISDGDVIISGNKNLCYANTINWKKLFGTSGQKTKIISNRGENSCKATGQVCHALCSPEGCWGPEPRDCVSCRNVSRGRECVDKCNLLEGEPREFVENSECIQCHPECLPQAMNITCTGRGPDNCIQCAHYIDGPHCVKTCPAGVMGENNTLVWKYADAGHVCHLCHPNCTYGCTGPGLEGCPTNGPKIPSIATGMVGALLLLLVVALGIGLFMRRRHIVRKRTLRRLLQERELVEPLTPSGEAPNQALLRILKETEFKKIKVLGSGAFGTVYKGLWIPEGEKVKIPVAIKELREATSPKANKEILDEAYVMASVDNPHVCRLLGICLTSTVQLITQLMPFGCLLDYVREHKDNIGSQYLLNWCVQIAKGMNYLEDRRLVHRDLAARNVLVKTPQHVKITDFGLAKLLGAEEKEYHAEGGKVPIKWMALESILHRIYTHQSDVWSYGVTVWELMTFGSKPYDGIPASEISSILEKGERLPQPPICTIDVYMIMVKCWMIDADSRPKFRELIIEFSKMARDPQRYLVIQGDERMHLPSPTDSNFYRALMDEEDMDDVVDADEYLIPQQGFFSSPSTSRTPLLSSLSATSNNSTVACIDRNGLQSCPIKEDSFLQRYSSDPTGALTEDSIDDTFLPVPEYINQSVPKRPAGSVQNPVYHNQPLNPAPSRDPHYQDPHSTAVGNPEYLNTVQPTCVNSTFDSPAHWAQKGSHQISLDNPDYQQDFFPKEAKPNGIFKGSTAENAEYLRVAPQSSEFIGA

[6] = molecular target: Receptor tyrosine-protein kinase erbB-2 (Homo sapiens, UniProt P04626); assay: Inhibition of human HER2
Chain of Receptor tyrosine-protein kinase erbB-2 (P04626 whole entry): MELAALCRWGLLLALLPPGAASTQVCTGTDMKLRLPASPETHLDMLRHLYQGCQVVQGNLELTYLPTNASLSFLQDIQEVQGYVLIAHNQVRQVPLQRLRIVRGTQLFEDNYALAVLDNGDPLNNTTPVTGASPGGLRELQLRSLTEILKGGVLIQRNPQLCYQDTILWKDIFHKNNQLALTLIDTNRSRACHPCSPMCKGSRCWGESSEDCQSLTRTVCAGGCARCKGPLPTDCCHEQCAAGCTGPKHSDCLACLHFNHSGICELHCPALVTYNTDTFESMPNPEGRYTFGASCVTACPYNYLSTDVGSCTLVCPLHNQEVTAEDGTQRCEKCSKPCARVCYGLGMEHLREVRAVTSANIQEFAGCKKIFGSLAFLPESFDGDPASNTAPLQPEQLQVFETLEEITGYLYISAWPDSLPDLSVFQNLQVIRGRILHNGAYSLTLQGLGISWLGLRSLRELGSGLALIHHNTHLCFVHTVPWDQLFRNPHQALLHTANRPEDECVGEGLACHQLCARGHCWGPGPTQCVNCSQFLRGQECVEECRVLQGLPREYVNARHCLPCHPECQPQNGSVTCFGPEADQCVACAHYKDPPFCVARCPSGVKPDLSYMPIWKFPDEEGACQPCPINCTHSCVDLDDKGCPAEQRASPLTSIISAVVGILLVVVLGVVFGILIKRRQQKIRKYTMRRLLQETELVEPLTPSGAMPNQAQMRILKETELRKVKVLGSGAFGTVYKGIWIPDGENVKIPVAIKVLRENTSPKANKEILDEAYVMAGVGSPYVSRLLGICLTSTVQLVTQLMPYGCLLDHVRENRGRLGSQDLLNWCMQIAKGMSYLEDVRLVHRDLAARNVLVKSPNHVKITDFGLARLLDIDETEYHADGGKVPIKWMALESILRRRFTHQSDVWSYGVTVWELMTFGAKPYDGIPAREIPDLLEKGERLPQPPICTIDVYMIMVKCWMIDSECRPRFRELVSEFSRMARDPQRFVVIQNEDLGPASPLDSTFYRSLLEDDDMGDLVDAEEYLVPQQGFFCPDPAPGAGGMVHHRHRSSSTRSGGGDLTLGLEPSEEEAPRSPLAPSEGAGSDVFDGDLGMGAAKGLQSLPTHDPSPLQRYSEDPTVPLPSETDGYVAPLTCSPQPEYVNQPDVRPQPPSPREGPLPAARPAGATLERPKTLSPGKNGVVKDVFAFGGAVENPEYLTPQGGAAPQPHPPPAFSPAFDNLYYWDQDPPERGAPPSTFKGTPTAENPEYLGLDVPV

[7] = molecular target: Serine/threonine-protein kinase PLK1 (Homo sapiens, UniProt P53350); assay: Inhibition of human Plk1
Chain of Serine/threonine-protein kinase PLK1 (P53350 whole entry): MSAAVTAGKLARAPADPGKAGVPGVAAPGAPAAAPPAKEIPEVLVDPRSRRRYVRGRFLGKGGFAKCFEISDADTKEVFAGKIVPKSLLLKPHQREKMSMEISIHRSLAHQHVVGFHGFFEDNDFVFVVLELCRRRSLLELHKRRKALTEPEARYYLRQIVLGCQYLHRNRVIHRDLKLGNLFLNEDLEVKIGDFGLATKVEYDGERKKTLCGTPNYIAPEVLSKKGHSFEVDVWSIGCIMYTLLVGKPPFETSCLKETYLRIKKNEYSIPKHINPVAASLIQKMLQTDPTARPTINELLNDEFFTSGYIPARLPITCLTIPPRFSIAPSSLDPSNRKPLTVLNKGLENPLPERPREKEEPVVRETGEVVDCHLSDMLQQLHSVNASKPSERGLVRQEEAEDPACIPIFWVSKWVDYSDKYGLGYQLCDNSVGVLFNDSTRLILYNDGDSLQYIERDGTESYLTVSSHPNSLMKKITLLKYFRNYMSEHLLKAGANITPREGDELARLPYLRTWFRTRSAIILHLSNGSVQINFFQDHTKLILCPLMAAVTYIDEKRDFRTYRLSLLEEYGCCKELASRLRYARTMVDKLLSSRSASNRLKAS

Chain of Vascular endothelial growth factor receptor 2 (P35968 whole entry): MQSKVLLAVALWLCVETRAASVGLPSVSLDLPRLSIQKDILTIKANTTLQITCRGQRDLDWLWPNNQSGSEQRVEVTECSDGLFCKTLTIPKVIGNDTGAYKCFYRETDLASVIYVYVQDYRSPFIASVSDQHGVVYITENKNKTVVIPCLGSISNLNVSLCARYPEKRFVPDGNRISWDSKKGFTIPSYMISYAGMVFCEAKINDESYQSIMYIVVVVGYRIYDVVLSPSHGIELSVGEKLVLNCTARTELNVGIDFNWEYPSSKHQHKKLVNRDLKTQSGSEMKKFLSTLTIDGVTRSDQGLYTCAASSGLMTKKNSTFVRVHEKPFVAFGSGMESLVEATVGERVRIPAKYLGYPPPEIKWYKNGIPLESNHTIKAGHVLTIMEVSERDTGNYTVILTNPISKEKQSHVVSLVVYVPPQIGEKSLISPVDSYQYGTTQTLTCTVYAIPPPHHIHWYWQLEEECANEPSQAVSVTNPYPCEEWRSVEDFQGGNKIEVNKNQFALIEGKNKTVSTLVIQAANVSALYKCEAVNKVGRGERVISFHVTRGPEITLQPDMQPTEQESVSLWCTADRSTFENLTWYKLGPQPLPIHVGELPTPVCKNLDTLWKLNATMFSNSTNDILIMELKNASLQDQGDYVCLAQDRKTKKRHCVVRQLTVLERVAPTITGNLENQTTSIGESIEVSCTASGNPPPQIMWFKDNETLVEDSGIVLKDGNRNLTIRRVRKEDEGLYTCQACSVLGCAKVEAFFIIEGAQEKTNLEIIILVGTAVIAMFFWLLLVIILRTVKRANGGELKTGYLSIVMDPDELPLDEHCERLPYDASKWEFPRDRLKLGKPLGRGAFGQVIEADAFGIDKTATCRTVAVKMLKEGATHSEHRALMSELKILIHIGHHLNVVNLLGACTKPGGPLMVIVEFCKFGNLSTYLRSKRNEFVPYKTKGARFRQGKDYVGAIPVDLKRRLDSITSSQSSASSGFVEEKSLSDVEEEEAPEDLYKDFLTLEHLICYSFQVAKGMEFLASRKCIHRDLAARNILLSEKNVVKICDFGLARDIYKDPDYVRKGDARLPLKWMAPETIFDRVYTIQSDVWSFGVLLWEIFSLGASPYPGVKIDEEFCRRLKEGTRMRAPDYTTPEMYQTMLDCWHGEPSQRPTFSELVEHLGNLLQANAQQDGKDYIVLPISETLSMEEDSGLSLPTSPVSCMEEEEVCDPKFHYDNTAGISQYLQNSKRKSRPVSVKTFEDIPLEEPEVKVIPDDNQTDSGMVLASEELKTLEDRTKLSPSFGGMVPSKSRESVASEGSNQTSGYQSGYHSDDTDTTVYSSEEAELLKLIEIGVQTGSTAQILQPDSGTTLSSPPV

Row | Structure (SMILES) | IC50 [1] [nM] | EC50 (HUVEC) [nM] | other results
1 | COC(=O)c1ccc2c(c1)NC(=O)/C2=C(\Nc1ccc(NC(=O)CN2CCN(C)CC2)cc1)c1ccccc1 | 83 | 83 | 
2 | COC(=O)c1ccc2c(c1)NC(=O)/C2=C(\Nc1ccc(N(CCN(C)C)C(C)=O)cc1)c1ccccc1 | 12 | 15 | 
3 | CC(=O)Nc1ccc2c(c1)NC(=O)/C2=C(\Nc1ccc(CN2CCCCC2)cc1)c1ccccc1 | > 3000 |  | 
4 | COC(=O)c1ccc2c(c1)NC(=O)/C2=C(\Nc1ccc(N(C)S(C)(=O)=O)cc1)c1ccccc1 | 150 |  | 
5 | CCOC(=O)c1ccc2c(c1)NC(=O)/C2=C(\Nc1ccc(CN2CCCCC2)cc1)c1ccccc1 | 109 | 47 | EC50 (HeLa): > 1000 nM
6 | O=C1Nc2cc(Cl)ccc2/C1=C(/Nc1ccc(CN2CCCCC2)cc1)c1ccccc1 | 129 | 49 | 
7 | COC(=O)c1ccc2c(c1)NC(=O)/C2=C(\Nc1ccc(NC(=O)CN(C)C)cc1)c1ccccc1 | 119 | 88 | 
8 | COC(=O)c1ccc2c(c1)NC(=O)/C2=C(\Nc1ccccc1)c1ccccc1 | 8000 |  | 
9 | Nc1ccc2c(c1)NC(=O)/C2=C(\Nc1ccc(CN2CCCCC2)cc1)c1ccccc1 | 132 | 414 | 
10 | CCN(C)C(=O)c1ccc2c(c1)NC(=O)/C2=C(\Nc1ccc(CN2CCCCC2)cc1)c1ccccc1 | 1450 | 718 | 
11 | COC(=O)c1ccc2c(c1)NC(=O)/C2=C(\Nc1ccc(C(=O)N(C)CCN(C)C)cc1)c1ccccc1 | 24 | 25 | 
12 | CN(C)C(=O)c1ccc2c(c1)NC(=O)/C2=C(\Nc1ccc(CN2CCCCC2)cc1)c1ccccc1 | 1310 | 542 | 
13 | NC(=O)c1ccc2c(c1)NC(=O)/C2=C(\Nc1ccc(CN2CCCCC2)cc1)c1ccccc1 | 763 | 342 | IC50 [2]: > 10 µM; IC50 (Insulin receptor): > 10 µM; IC50 [3]: > 10 µM; IC50 [4]: > 10 µM; IC50 [5]: > 10 µM; IC50 [6]: > 10 µM; IC50 [7]: > 10 µM
14 | O=C1Nc2ccccc2/C1=C(/Nc1ccc(CN2CCCCC2)cc1)c1ccccc1 | 2110 |  | 
15 | O=C1Nc2cc(C(=O)O)ccc2/C1=C(/Nc1ccc(CN2CCCCC2)cc1)c1ccccc1 | > 1000 |  | 
16 | COC(=O)c1ccc2c(c1)NC(=O)/C2=C(\Nc1ccc(N(CC(=O)N(C)C)C(C)=O)cc1)c1ccccc1 | 8 | 37 | 
17 | COC(=O)c1ccc2c(c1)NC(=O)/C2=C(\Nc1ccc(CN(C)C)cc1)c1ccccc1 | 64 |  | 
